Blank lines part the entries; values can stand above or below the compound they belong to.
Legend:
[1] = test system: human iPSC-derived cardiomyocytes; test: PCA of beat parameters: cardiotoxicity risk and mechanism classification; assay type: cell-based
Experimental: Each parameter set was evaluated for its ability to separate cardiotoxic and non-cardiotoxic compounds while maintaining minimal variance among negative controls. […] To assess cardiotoxicity, PCA scores of test compounds were plotted in the PC space, and their positions were compared with the SD-defined zones of the negative control group. Risk levels were classified as follows: Low risk (within 1 SD), medium risk (between 1 and 2 SD), and high risk (beyond 2 SD). Dose-dependent cardiotoxicity potential was estimated based on displacement from the negative control cluster.
To establish a risk classification framework, the standard deviation (SD) range of negative control compounds in PCA space was used to define 3 zones: Within the SD range (low risk), between 1 and 2 SD (medium risk), and beyond 2 SD (high risk) (Fig. 6B). Risk levels derived from PCA distribution were compared with IC50 and Cmax values reported for each compound and associated ion channels (Table 5).

[2] = test system: CaV; settings: ref Yao and Tseng 1997; cited from earlier work
[3] = test system: cardiomyocytes; settings: FPDc10 (10% prolongation of FPDc); ref Nozaki et al. 2017; cited from earlier work
[4] = ref Lee et al. 2025; cited from earlier work
[5] = test system: IKs; design: method as in Davies et al. 1996; settings: ref Davies et al. 1996; cited from earlier work
[6] = test system: human iPSC-derived cardiomyocytes; test: Field potential imaging (FPI) with UHD-CMOS-MEA, acute drug treatment; assay type: cell-based
Experimental: Cryopreserved iCell Cardiomyocytes (FUJIFILM Cellular Dynamics, Inc.) were handled according to the supplier’s instructions. Cells were thawed in a 37 °C water bath for approximately 3 min and resuspended in iCell Thawing Medium to prepare a cell suspension at a final concentration of 1 × 10^7 cells/ml. A total of 10 µl of the cell suspension (100,000 cells per chip) was seeded directly onto the fibronectin-coated electrode area of each chip. Chips were incubated at 37 °C for 1 h to allow cell attachment, after which 1 ml of maintenance medium was gently added. […] Thereafter, medium exchanges were performed twice weekly by replacing half the medium volume.
Compounds were dissolved in culture medium containing 0.1% DMSO and administered cumulatively at increasing concentrations. Drug solutions were applied directly to the culture wells, and measurements were initiated 30 min after administration. […] All recordings were performed under spontaneous beating conditions, with no external pacing applied.
(§1) Recordings were performed at a sampling rate of 2 kHz, with a 2-min recording duration per condition. Data acquisition was controlled via proprietary software (Sony Semiconductor Solutions), and all raw signals were stored for offline analysis. All experiments were conducted in a humidified environment at 37 °C with 5% CO2, ensuring physiological conditions during both drug exposure and recording.
Spikes from hiPSC-derived cardiomyocytes were initially detected at each electrode using a voltage threshold of ±100 µV via BinViewer software (SCREEN Holdings Co., Ltd, Japan). The resulting spike data were then processed using a custom MATLAB (MathWorks, Natick, MA) script to perform beat detection. Firing count histograms were generated using a bin size of 0.5 ms, and peak detection within these histograms identified the timing and propagation duration of beats across the electrode array. For each electrode, the maximum spike amplitude and its corresponding peak timing were calculated to generate heat maps of field potential amplitude and activation timing. […]

[7] = test system: hERG; settings: read-out: IC50 hERG; ref Busch et al. 1998; cited from earlier work
[8] = test system: cardiomyocytes; settings: CTD90 ↑; ref Lu et al. 2019; cited from earlier work
[9] = test system: hiPSC-CMs; test: Conventional MEA recording (16-electrode Axion Maestro), acute exposure; assay type: cell-based, human; settings: acute
Experimental: To enable comparison with the UHD-CMOS-MEA recordings, conventional extracellular field potential recordings were performed using 16-electrode MEA plates on a commercially available MEA system (Axion Maestro, Axion Biosystems), in accordance with the general principles of the CiPA initiative. hiPSC-CMs were cultured and maintained on the MEA plates under spontaneous beating conditions at 37 °C. Recordings were conducted after 10 to 14 DIV, and data acquisition and beat detection were performed using the built-in algorithms of the AxIS software (Axion Biosystems), without the use of external pacing. […] Each compound was applied under acute exposure conditions, and field potential recordings were obtained for 30 min following drug administration.
To evaluate the measurement capabilities of a conventional MEA system, the same set of 7 compounds was tested using the 16-electrode Axion Maestro platform.

[10] = test system: NaV; settings: ref Yao and Tseng 1997; cited from earlier work
[11] = test system: human iPSC-derived cardiomyocytes; test: PCA and MANOVA of beat parameters after chronic exposure; assay type: cell-based; settings: 0.1 µM, relative to all DMSO time points
Experimental: (§2) For mechanism-of-action classification and the cardiotoxicity assessment of doxorubicin, a one-way multivariate analysis of variance (MANOVA) was employed, using principal component (PC)1 and PC2 scores as dependent variables to evaluate significant differences between drug mechanism groups. Statistical significance was determined at P < 0.05.
PCA was conducted to integrate multiple parameter changes into a comprehensive index of cardiotoxicity. The PCA included 6 selected parameters: IBI, Amplitude, Amplitude STV, Area, Velocity, and Velocity STV (Table 7). The first 2 PCs accounted for a cumulative contribution of 69.4%. […] For statistical analysis of cardiotoxicity across time points, PCA plots were categorized into 15 groups based on concentration and exposure duration. MANOVA was performed to compare each group against the DMSO 0.5 h reference (Table 8). No significant differences were detected among DMSO time points.

[12] = test system: hiPSC-CMs; test: Conventional MEA, chronic exposure; assay type: cell-based, human; settings: 0.1 μM
[13] = test system: human iPSC-derived cardiomyocytes; test: FPI with UHD-CMOS-MEA, chronic exposure up to 96 h; assay type: cell-based
Experimental: as §1
Spikes from hiPSC-derived cardiomyocytes were initially detected at each electrode using a voltage threshold of ±100 µV via BinViewer software (SCREEN Holdings Co., Ltd, Japan). The resulting spike data were then processed using a custom MATLAB (MathWorks, Natick, MA) script to perform beat detection. Firing count histograms were generated using a bin size of 0.5 ms, and peak detection within these histograms identified the timing and propagation duration of beats across the electrode array. For each electrode, the maximum spike amplitude and its corresponding peak timing were calculated to generate heat maps of field potential amplitude and activation timing.
as §2
To validate the chronic cardiotoxicity assessment using CMOS-MEA measurements, FPI was performed following long-term exposure to doxorubicin.

[14] = test system: mouse cardiomyocytes; design: method as in Lin et al. 2024; settings: ref Lin et al. 2024; cited from earlier work
[15] = test system: monolayer hiPSC-CMs; settings: ref Maddah et al. 2020; cited from earlier work
[16] = test system: rat cardiomyocytes; settings: ref Sag et al. 2011, Ikeda et al. 2019; cited from earlier work
[17] = test system: Engineered heart tissues derived from human iPSCs; design: method as in Arefin et al. 2023; settings: ref Arefin et al. 2023, cited from earlier work
[18] = acute, statistically significant change vs before
[19] = 0.1 μM, prolonged exposure (48 h)

IBI (interbeat interval) [6, 18]: increased and ↑ | IBI STV [6, 18]: significantly elevated and ↑ | BR (beat rate) ([6]; acute, statistically significant change vs before, arrows = direction, – = none): decreased and ↓ | FPI (concentration at which changes were detected) ([6]; changed parameters in brackets in each cell): 1 (BR, IBI, IBI STV) μM | IBI [9]: prolongation | beat frequency [9]: consistent reductions | field potential (spike) amplitude [9]: decreasing trend | propagation area [9]: statistically significant reduction
Compound: CN1CCN(CCCCN2C(=O)CN(/N=C/c3ccc(-c4ccc(Cl)cc4)o3)C2=O)CC1 [Azimilide]
FPI PCA (concentration at which changes were detected) [1]: 1 µM | IC50 [2]: 17.8 µM | MEA assay [3]: 0.129 ([Nozaki et al. 2017]) (FPDc10) µM | Cmax Free [4]: 0.07 ([Lee et al. 2025]) μM | IC50 [5]: 0.7 µM | IC50 [7]: 5.2 µM | HCA assay [8]: 1.0 ([Lu et al. 2019]) (CTD90 ↑) µM | magnitude of change in propagation area [9]: less than 5% | IC50 [10]: 19 µM

exposure time at which a reduction in spike amplitude began to be detected [12]: 48 h | beat area ([13]; 0.03 µM, after 24 h): significant decreases | peak potential ([13]; 0.03 µM, after 24 h): significant decreases | beat rate ([13]; 0.03 µM, chronic exposure): did not significantly alter | changes in conventional parameters such as beat rate and IBI ([13]; 0.1 µM): evident only after 72 h | beat area ([13]; 0.1 µM, beginning at 48 h): reductions | peak potential ([13]; 0.1 µM, beginning at 48 h): reductions | temporal variability metrics (CV and STV) [13, 19]: increase | STV of peak potential ([13]; 0.1 µM, within 0.5 h): decreased
Compound: COc1cccc2c1C(=O)c1c(O)c3c(c(O)c1C2=O)C[C@@](O)(C(=O)CO)C[C@@H]3O[C@H]1C[C@H](N)[C@H](O)[C@H](C)O1 [Doxorubicin]
MANOVA of PCA groups vs DMSO [11]: significant differences were observed after 24 h | exposure time at which a decline in conduction velocity was detected ([13]; 0.1 μM, CMOS-MEA): 24 h | conduction velocity [13, 19]: decrease | concentration at which cardiotoxicity was detected ([13]; within 24 h, UHD-CMOS-MEA): 30 nM | concentration giving impaired Ca^2+ handling and reduced contractility [14]: 1000 nM | concentration at which structural changes were detected [15]: exceeding 0.3 μM | concentrations giving Ca^2+ handling abnormalities, apoptosis and contractile dysfunction [16]: only at micromolar concentrations | effect on contractile force ([17]; 125 or 500 nM): no observable effects | concentration giving reduced contractile force ([17]; after 48 h of exposure): 1000 nM

Source: publication PMC12646587, “Advanced cardiotoxicity profiling using field potential imaging with UHD-CMOS-MEA in human iPSC-derived cardiomyocytes” (Toxicological Sciences, 2025)
